Laboratory results published in patent US10450378B2, “Cytotoxic and anti-mitotic compounds, and methods of using the same” (priority 2014, dated 2019).

Tests used:
[1] = system: Jurkat cells; assay: Cell cycle arrest assay; type: cell-based, Human; details: 50 nM, 24 h, propidium iodide
Method: Jurkat cells (ATCC), cultured in RMPI-1640 media supplemented with 10% FBS, were obtained in logarithmic growth. 1 million cells/ml were seeded into a 12-well tissue-culture treated plate in a 950 μL, volume. Cells were treated with Compound 5 in 50 μL of growth media such that the final concentration of Compound 5 was 50 nM, control cells were given 50 μL of growth media alone. Cells were incubated for 24 h at 37° C., 5% CO2 in a humidified incubator. Following incubation, cells were thoroughly resuspended and transferred to 5 mL FACS tubes, and stored on ice. Two washes were performed by spinning cells down in a swinging-bucket centrifuge at 450×g for 4 min, resuspending in 1 mL ice-cold PBS. Cells were fixed through the addition of 3 mL ice-cold 100% ethanol in a dropwise fashion under vortex, and immediately stored at 4° C. for 1 h. During the 1 h incubation, the following staining solution was prepared in ice-cold PBS: 10 μg/ml propidium iodide, 10 U/ml RNAse 1f, and 0.05% Triton X-100. Following the 1 h fixation incubation, ethanol was removed by spinning cells as described above, and washing twice in 1 mL ice-cold PBS. Cells were resuspended in 500 μL of the above-mentioned staining solution, and incubated at room temperature for 1 h. […] Histograms were generated using FCS Express, plotting # of events against fluorescence in FL-3.

[2] = system: Jurkat cell line; assay: Cytotoxicity of compounds of Formula I, Example 3 (CellTiter-Glo); type: cell-based, Human; details: Homo sapiens, 72 h, 3 days incubation, CellTiter-Glo, read-out: EC50
Method: (§1) Compounds were tested on Jurkat and HCC1954 cell lines to assess their cytotoxicity. Compounds were titrated 1:3 starting at various concentrations (30 nM to 1000 nM). Control cytotoxin HTI-286 (see, e.g., U.S. Pat. No. 7,579,323) was also titrated 1:3 across starting with a 30 nM concentration. Plates were incubated for 3 days. Cell viability was quantified using 30 μL/well of 1× CellTiter-Glo reagent.
(§2) Each cell line was grown in its respective growth medium until seeding day. Cells were removed from their culture vessels and the resulting cell suspension was counted using the ViCell. Cells were then diluted in their growth medium to 25000/mL such that 100 μL/well=2500 cells/well. Each cell line was seeded in the inner 60 wells of 96-well black walled TC plates, outer wells filled with water. HCC1954 were seeded a day prior to assay set up. Cytotoxins were diluted as described below a 5× dose-response of each compound was prepared using RPMI+10% FBS in a deep-well 96-well plate. This “master” dilution plate was used for each cell line. 25 μL of the 5× dose responses was spiked into each cell line in triplicate. The plates were returned to the incubator and were incubated for 3 nights. After the 3 nights, cell viability was quantified using 30 μL/well of 1× CellTiter-glo reagent. After at least 10 minutes of incubation, the luminescence was measured using the SpectraMax (500 ms integration).

[3] = system: HCC1954 cell line; assay: as above; type: cell-based; details: Homo sapiens, 72 h, 3 days incubation
Method: as §1, §2

[4] = system: Human gastric carcinoma cell line NCI-N87; assay: Cellular cytotoxicity of compounds of Formula I, Example 3.1; type: cell-based; details: five nights, CellTiter-Glo
Method: (§3) Compounds were tested on one or more of Human T-cell leukemia cell line Jurkat (ATCC: TIB-152); Human breast cancer cell lines HCC1954 (ATCC: CRL-2338) and JIMT-1 (DSMZ: ACC 589); Human Pancreatic cell line BxPC-3 (ATCC: CRL.1687), Human ovarian adenocarcinoma cell line SK-OV-3 (ATCC: HTB-77) and Human gastric carcinoma cell line NCI-N87 (ATCC: CRL. 5822); to assess their cytotoxicity.
(§4) Briefly, cells were obtained from commercial sources and cultured as described in the product sheet provided. Cells were removed from their culture vessels and the resulting cell suspension was counted using a ViCell (Beckman Coulter), then seeded at 25,000 cells/mL (2,500 cells/well) in Costar 3904 black walled, flat bottomed 96-well plates (cells were seeded in the inner 60 wells of 96-well TC plates, and outer edge wells filled with water). Adherent cell lines were incubated for one night at 37° C./5% CO2 atmosphere to allow the cells to attach to the microtiter plate surface, while suspension (Jurkat) cells were plated immediately before use. Cytotoxins were dissolved and serially diluted in dimethyl sulfoxide and then the solutions were added to complete growth medium at five-times the desired maximum final concentration. The cytotoxins were then titrated in growth medium, normally 1:3, over eight steps. A control with no test article present (growth medium alone) was included on each microtiter plate in sextuplicate. The prepared toxin titrations were added (25 μL/well) in triplicate to each cell line assayed. The cells and titrations were incubated at 37° C./5% CO2 for three nights (Jurkat) and five nights (all other cell lines). After the incubation, cell viability was measured using CellTiter-Glo® by adding 30 μL of prepared CellTiter-Glo® reagent to each assay well. The mixtures were incubated for at least twenty minutes in the dark prior to measuring emitted luminescence using a microplate luminometer (500 ms integration time). The collected relative luminescence units (RLU) were converted to % cytotoxicity using the growth medium alone control mentioned above (% Cytotoxicity=1-[well RLU/average medium alone control RLU]×100%).

[5] = system: Human Pancreatic cell line BxPC-3; assay: as above; type: cell-based; details: five nights, CellTiter-Glo
Method: as §3, §4

[6] = system: Human T-cell leukemia cell line Jurkat; assay: as above; type: cell-based; details: Homo sapiens; Jurkat; three nights; CellTiter-Glo; read-out: EC50 (nM) Jurkat
Method: as §3, §4

[7] = system: Human breast cancer cell line JIMT-1; assay: as above; type: cell-based; details: five nights, CellTiter-Glo
Method: as §3, §4

[8] = system: Human breast cancer cell line HCC1954; assay: as above; type: cell-based; details: five nights, CellTiter-Glo, read-out: EC50 (nM) HCC-1954
Method: as §3, §4

[9] = system: Human ovarian adenocarcinoma cell line SK-OV-3; assay: as above; type: cell-based; details: five nights, CellTiter-Glo, read-out: EC50 (nM) SKOV-3
Method: as §3, §4

CC[C@H](C)[C@@H]([C@@H](CC(=O)N1CCC[C@H]1[C@H](OC)[C@@H](C)C(=O)NS(=O)(=O)c1ccc(N)cc1)OC)N(C)C(=O)[C@@H](NC(=O)[C@H](C(C)C)N(C)C)C(C)C [Compound 5, (S)-N-((3R,4S,5S)-1-((S)-2-((1R,2R)-3-(4-Aminophenylsulfonamido)-1-methoxy-2-methyl-3-oxopropyl)pyrrolidin-1-yl)-3-methoxy-5-methyl-1-oxoheptan-4-yl)-2-((S)-2-(dimethylamino)-3-methylbutanamido)-N,3-dimethylbutanamide] was tested, and the “Cell cycle phase (DNA content histograms)” value [1] was “pronounced shift towards G2/M phase”, the EC50 [2] was 16.8 nM and the EC50 [3] was 8.9 nM. The EC50 [4] was 12 nM, the EC50 [5] was 18.2 nM and the EC50 [6] was 13.6 nM. The EC50 [7] was 9.3 nM, the EC50 [8] was 8.9 nM and the EC50 [9] was 23.7 nM.
